Experimental data published in ChEMBL document CHEMBL3885861, “Open TG-GATES”.

Organism: Rattus norvegicus
Test: Open TG-GATES - Regimen: Single
Format: toxicity, organism-based, Sprague-Dawley
Parameters: regimen Single, gender Male, age 6 weeks
Conditions: in vivo, po, 30 mg/kg, route gavage, dose level Low; for APTT / Bas / Eos / Fbg / Hb / Ht / Lym / MCH / MCHC / MCV / Mono / Neu / PT / Plat / RBC / Ret / WBC: tissue Blood; for KIDNEY_L / KIDNEY_R / KIDNEY_TOTAL: tissue Kidney; for LIVER: tissue Liver; for A/G / ALP / ALT / AST / BUN / CRE / Ca / Cl / DBIL / GLC / IP / K / LDH / Na / PL / RALB / TBIL / TC / TG / TP / gamma-GTP: tissue Plasma

## Cc1cccc(Nc2ccccc2C(=O)O)c1C [MEFENAMIC ACID]
3 h
  TERMINAL_BW: 215.4 g
  APTT: 19 s
  Bas: 0%
  Eos: 1%
  Fbg: 214.4 mg/dL
  Hb: 13.3 g/dL
  Ht: 37.7%
  Lym: 79.6%
  MCH: 22 pg
  MCHC: 35.3%
  MCV: 62.1 fL
  Mono: 2.2%
  Neu: 15.4%
  PT: 12.4 s
  Plat: 118.3 x10_4/uL
  RBC: 607.2 x10_4/ul
  Ret: 7.3%
  WBC: 91.2 x10_2/uL
  KIDNEY_L: 1 g
  KIDNEY_R: 1 g
  KIDNEY_TOTAL: 2 g
  LIVER: 9.5 g
  A/G: 1.6
  ALP: 842.4 IU/L
  ALT: 36.2 IU/L
  AST: 68.8 IU/L
  BUN: 11 mg/dL
  CRE: 0.4 mg/dL
  Ca: 10.7 mg/dL
  Cl: 103.6 meq/L
  DBIL: 0.074 mg/dL
  GLC: 189.8 mg/dL
  IP: 8.8 mg/dL
  K: 4.1 meq/L
  LDH: 197.4 IU/L
  Na: 141.2 meq/L
  PL: 134.8 mg/dL
  RALB: 3.4 g/dL
  TBIL: 0.1 mg/dL
  TC: 73.4 mg/dL
  TG: 49.2 mg/dL
  TP: 5.4 g/dL
  gamma-GTP: 1.2 IU/L
6 h
  TERMINAL_BW: 213 g
  APTT: 18.5 s
  Bas: 0%
  Eos: 1%
  Fbg: 226.6 mg/dL
  Hb: 13.4 g/dL
  Ht: 37.4%
  Lym: 76.8%
  MCH: 22.3 pg
  MCHC: 35.8%
  MCV: 62.5 fL
  Mono: 2.6%
  Neu: 18.2%
  PT: 12.6 s
  Plat: 118.7 x10_4/uL
  RBC: 599 x10_4/ul
  Ret: 7.5%
  WBC: 86.8 x10_2/uL
  KIDNEY_L: 1 g
  KIDNEY_R: 1 g
  KIDNEY_TOTAL: 2 g
  LIVER: 9.5 g
  A/G: 1.7
  ALP: 972 IU/L
  ALT: 37.4 IU/L
  AST: 65.2 IU/L
  BUN: 9.8 mg/dL
  CRE: 0.3 mg/dL
  Ca: 10.5 mg/dL
  Cl: 102.6 meq/L
  DBIL: 0.07 mg/dL
  GLC: 191.2 mg/dL
  IP: 8.7 mg/dL
  K: 4 meq/L
  LDH: 168.4 IU/L
  Na: 140.2 meq/L
  PL: 136.6 mg/dL
  RALB: 3.4 g/dL
  TBIL: 0.1 mg/dL
  TC: 77.8 mg/dL
  TG: 58 mg/dL
  TP: 5.4 g/dL
  gamma-GTP: 1 IU/L
9 h
  TERMINAL_BW: 211.9 g
  APTT: 18.5 s
  Bas: 0%
  Eos: 1%
  Fbg: 214.2 mg/dL
  Hb: 13.3 g/dL
  Ht: 37.1%
  Lym: 79.8%
  MCH: 21.4 pg
  MCHC: 35.7%
  MCV: 60 fL
  Mono: 3%
  Neu: 14.6%
  PT: 12.9 s
  Plat: 120.5 x10_4/uL
  RBC: 621.4 x10_4/ul
  Ret: 7.2%
  WBC: 68.9 x10_2/uL
  KIDNEY_L: 0.9 g
  KIDNEY_R: 1 g
  KIDNEY_TOTAL: 1.9 g
  LIVER: 8.5 g
  A/G: 1.6
  ALP: 921.4 IU/L
  ALT: 30.2 IU/L
  AST: 62 IU/L
  BUN: 10.8 mg/dL
  CRE: 0.3 mg/dL
  Ca: 10.5 mg/dL
  Cl: 102.4 meq/L
  DBIL: 0.066 mg/dL
  GLC: 192.6 mg/dL
  IP: 9.1 mg/dL
  K: 3.8 meq/L
  LDH: 164.8 IU/L
  Na: 139.8 meq/L
  PL: 140.2 mg/dL
  RALB: 3.3 g/dL
  TBIL: 0.1 mg/dL
  TC: 79 mg/dL
  TG: 42.8 mg/dL
  TP: 5.3 g/dL
  gamma-GTP: 1 IU/L
24 h
  TERMINAL_BW: 227.6 g
  APTT: 18.2 s
  Bas: 0%
  Eos: 1%
  Fbg: 227.4 mg/dL
  Hb: 13.4 g/dL
  Ht: 38.5%
  Lym: 76.2%
  MCH: 22.3 pg
  MCHC: 34.9%
  MCV: 63.9 fL
  Mono: 3.4%
  Neu: 17.2%
  PT: 11.9 s
  Plat: 117.8 x10_4/uL
  RBC: 604 x10_4/ul
  Ret: 6.7%
  WBC: 93.5 x10_2/uL
  KIDNEY_L: 1 g
  KIDNEY_R: 1 g
  KIDNEY_TOTAL: 2 g
  LIVER: 10.7 g
  A/G: 1.5
  ALP: 1061.2 IU/L
  ALT: 42.2 IU/L
  AST: 71 IU/L
  BUN: 15 mg/dL
  CRE: 0.4 mg/dL
  Ca: 10.8 mg/dL
  Cl: 102.8 meq/L
  DBIL: 0.096 mg/dL
  GLC: 205.4 mg/dL
  IP: 7.6 mg/dL
  K: 4.2 meq/L
  LDH: 198 IU/L
  Na: 139.6 meq/L
  PL: 161 mg/dL
  RALB: 3.5 g/dL
  TBIL: 0.2 mg/dL
  TC: 80.8 mg/dL
  TG: 116.2 mg/dL
  TP: 5.7 g/dL
  gamma-GTP: 1.4 IU/L
